Holding throughout (assay type): cell-based
The test system of experiment [1] is MCF-7 cells. Kind of experiment: Dose dependent cytotoxic response of MCF-7 cells, monolayer vs 3P scaffold (calcein AM/ethidium live cell count). To be noted: for IC50: Homo sapiens, MCF7, 48 h, 48 hours of drug; for IC50 for 3P cultures relative to monolayer cultures: MCF7 cells, 3P scaffold vs monolayer. How it is done:
MCF cells (7×10^3) were cultured on monolayer and 3P scaffold for 7 days then treated with different concentration of LY294002 and U0126 for 48 hours. Cells were stained with calcein/am and ethydium bromide then counted. Mean percentage of live cells (+/−SEM) were plotted as a function of drug concentration on and represents 4 replicates in 3 separate experiments. Box data points indicate monolayer and diamond data points indicate 3P scaffold.
To further explore the utility of the 3P scaffold as a tool to monitor chemotherapeutic prevention of EMT, MCF-7 breast cancer cells were treated with Doxorubicin and Ly294002 and U0126 inhibitors to prevent spheroid formation and examined for a differential dose-dependent response which was compared with response in monolayer 2D culture. […] The IC-50 of a drug is defined as the […] of a drug to inhibit biological or biochemical function.

The next experiment deals with tumor cells. The experiment can be described thus: Doxorubicin sensitivity of tumor cells grown on 3PC scaffolds vs monolayer. The method, then: It was also determined that PLGA naked scaffolds are biocompatible and show increased tumorigenesis potential. From these observations, one can conclude that these 3D matrices can be used as a model to study cancer.
For experiment [2], the system named is MCF-7 cells. The experiment can be described thus: Inhibition of spheroid formation and EMT markers in MCF-7 cells on 3P scaffold. The method, then:
(§1) To determine if treatment by these agents would deregulate EMT in fully formed spheroids, the same concentration of drugs were administered to LLC spheroids cultured at day 4.

Experiment [3] deals with LLC spheroids. Kind of experiment: EMT marker expression in fully formed LLC spheroids treated at day 4. The method, then:
as §1

In experiment [4] the test system is biopsy induced tumoroids (BITs). Kind of experiment: Chemosensitivity of biopsy induced tumoroids (BITs) from FNAs of implanted LLC1 mouse tumors on 3P scaffolds. To be noted: for IC50: Mus musculus, LLC1. The method, then: FIG. 17 illustrates biopsy tumoroids (day 2) treated with 1 μM each of LY294002 or U0126 for 3 days. The average size of biopsy tumoroids on 3P scaffolds (n=10 controls, 55 LY294002 and 50 U0126) is shown.
Culturing fine needle aspirates (FNAs) of implanted mouse tumors: LLC1 cells (5×10^5) were subcutaneously injected into the flanks of wild type C57BL/6 mice (National Cancer Institute). Tumor formation was monitored for 2 weeks after which tumor biopsies were collected by fine needle aspiration. Briefly, a 23-gauge needle was inserted into the tumor using a rotating motion and the tissue samples were flushed from the needle by attaching a syringe filled with tissue culture medium and expelling the contents into a sterile tube. This process was repeated twice. The three collected tumor samples were pooled and single cell suspensions were cultured on the scaffold.
Chemosensitivity of tumor biopsies grown on 3P scaffolds: To determine if the 3P scaffold can be utilized to culture tumor biopsies, single-cell suspensions of FNAs of implanted mouse tumors were cultured on 3P scaffolds. […] In addition to tumor cells, BITs were examined for the presence of stromal cells that are typical of in vivo tumor microenvironment (TME) (Mallela et al., (2013) Stem Cells 31: 1321-1329) by immunostaining with antibodies to respective cell surface markers.
To determine if the biopsy tumoroids cultured on 3P scaffolds can be utilized to assess drug sensitivity, FNA tumoroids were cultured in the presence or absence of the inhibitors, LY294002 and U0126.

Experiment [5] concerns LLC spheroids. The experiment can be described thus: Drug efficacy on LLC spheroids grown on 3P scaffold (spheroid size and number). The method, then:
Drug efficacy analysis using 3P scaffold: To assess the ability of the 3P scaffold to monitor therapeutic efficacy to treat tumors, LLC spheroids were treated with different concentrations of the PI3K pathway inhibitor Ly294002 (1.0 μM, 0.1 μM, and 0.01 μM) and spheroid viability was assessed over a time period of 24 hours to 96 hours.

[6] abbreviates: MCF-7 on 3P scaffold, read-out: IC-50.
Setting [7] is: MCF-7 on monolayer, read-out: IC-50.
[8] abbreviates: 0.01 μM, 24 hours post treatment.
Where [9] appears, read: 0.01 μM, 96 hours post treatment.
Where [10] appears, read: 0.1 μM, 24 hours post treatment.
Setting [11] is: 1.0 μM, 24 hours post treatment.

Where two headings read alike, the source gives them in different places.

With `COc1cccc2c1C(=O)c1c(O)c3c(c(O)c1C2=O)C[C@@](O)(C(=O)CO)C[C@@H]3O[C@H]1C[C@H](N)[C@H](O)[C@H](C)O1` [doxorubicin], the IC50 is 12 µM with MCF-7 cells [1] (setting [6]) and 0.6 µM in the experiment on MCF-7 cells [1] (setting [7]). Moreover, the “sensitivity of tumor cells compared to cells grown on monolayer” value in the experiment with tumor cells is “less sensitive”.

For `N#CC(=C(/N)Sc1ccccc1N)/C(C#N)=C(\N)Sc1ccccc1N` [U0126], the IC50 with MCF-7 cells [1] (MCF-7 on 3P scaffold) was 0.106 µM; in the experiment on MCF-7 cells [1] (MCF-7 on monolayer), 0.0106 µM; in experiment [4], above 1 µM. Also, the “IC50 for 3P cultures relative to monolayer cultures” value with MCF-7 cells [1] is reported as 100 fold. For the same compound, the “spheroid formation and proliferation on 3P scaffolds” value in the experiment with MCF-7 cells [2] (MCF-7 treated after 24 hours of culture, observed on day 4) was “prevented spheroid formation and proliferation”. Besides, the “vimentin and E-cadherin expression” value with MCF-7 cells [2] (cells on 3P scaffold treated after 24 hours of culture) is recorded as “down regulating vimentin while maintaining E-cadherin expression”. Also, in the experiment on LLC spheroids [3], the “vimentin and E-cadherin expression (EMT inhibition)” value was “lack of vimentin expression and a concomitant expression of E-cadherin”. Moreover, the “growth of BITs” value in experiment [4] (FNA tumoroids on 3P scaffold cultured with inhibitor) is listed as “decreases in tumoroid size”.

Take `O=c1cc(N2CCOCC2)oc2c(-c3ccccc3)cccc12` [LY294002]: the “average decrease in spheroid size compared to untreated spheroids” value with LLC spheroids [5] (setting [8]) is listed as 17+/−12.5%; with LLC spheroids [5] (setting [10]), 22.0+/−10.9%; with LLC spheroids [5] (setting [11]), 37.3+/−8.4%. The “decrease in spheroid numbers” value with LLC spheroids [5] (setting [8]) is listed as 14.5+/−8.52%; with LLC spheroids [5] (0.01 μM, 48 hours) it was 40.3+/−2.44%; with LLC spheroids [5] (setting [9]), 93.3+/−0.48%; in the experiment with LLC spheroids [5] (setting [10]), 26.8+/−4.38%; in the experiment on LLC spheroids [5] (0.1 μM, 48 hours) it was 52.6+/−2.93%; in the experiment with LLC spheroids [5] (setting [11]) it was 37.4+/−3.8%. Further, the “decrease in spheroid numbers” value in the experiment on LLC spheroids [5] (1.0 μM, 48 hours) is 61.7+/−2.92%. Moreover, the “average decrease in spheroid size” value with LLC spheroids [5] (0.01 μM, 48 hours post treatment) was 28.9+/−9.3%; in the experiment on LLC spheroids [5] (setting [9]) it was 63+/−5.9%; in the experiment with LLC spheroids [5] (0.1 μM, 48 hours post treatment), 32.6+/−5.97%; with LLC spheroids [5] (1.0 μM, 48 hours post treatment) it was 51.2+/−6.73%. For the same compound, the IC50 in the experiment with MCF-7 cells [1] (setting [6]) was 1.15 µM; in the experiment with MCF-7 cells [1] (setting [7]) it was 0.13 µM; in experiment [4] (biopsy tumoroids (BITs) on 3P scaffold, read-out: IC50), above 1 µM. In addition, the “IC50 for 3P cultures relative to monolayer cultures” value in the experiment on MCF-7 cells [1] is 10 fold.

These data come from patent US9618501B2, “Three-dimensional fibrous scaffolds for cell culture” (University of South Florida, priority 2012, dated 2017).
